According to ChEMBL document CHEMBL3507680, “University of Dundee, Gates Library screen for HepG2 cell viability”:

Test: Human HepG2 cell viability assay in 384 well format
Format: toxicity, cell-based
Parameters: dose 125 nL, time 70.5 hour; cytotoxicity at 70.5 h: concentration not given beside the values
Conditions: HepG2 cells, read-out: Inhibition

| SMILES | cytotoxicity at 70.5 h [%] |
| --- | --- |
| CN(C)c1ncc(CN2CCOC(C(=O)Nc3ccccc3)C2)cn1 (stereo not drawn) | -6.09 |
| CC(NC(=O)c1cccc[n+]1[O-])c1ccc2c(c1)CCC(=O)N2 (stereo not drawn) | -3.74 |
| O=C(N1CCCO1)[C@@]12CCO[C@@H]1CCN(Cc1cccnc1)C2 | -9.68 |
| Cc1cccc(CN2CCC3(CCCN(C(=O)NC(C)C)C3)C2=O)n1 (stereo not drawn) | -5.48 |
| CCOCC1CN(c2ccc(C)nn2)Cc2cnn(CC)c21 (stereo not drawn) | -5.73 |
| CC(C)c1nc(C2CCCN(c3nccc(N4CCCC4)n3)C2)no1 (stereo not drawn) | -2.95 |
| COCCN1CCO[C@@H]2CN(Cc3sccc3C)C[C@@H]2C1 | 1.15 |
| CC(C(=O)N1CCCN(c2ncccc2C#N)CC1)n1cncn1 (stereo not drawn) | -12.1 |
| CN1C[C@@H](C(=O)N2CCCOCC2)[C@@]2(CCc3ccccc3C(=O)N2)C1 | -1.32 |
| CN1CCC(Cc2cc(Nc3ccccn3)ncn2)CC1 | 10.1 |
| Cc1cn2nc(N3CCCN(Cc4noc(C)n4)CC3)sc2n1 | -4.93 |
| CCc1c(C)nc(-n2nc(C3CC3)cc2NC(C)=O)[nH]c1=O | 1.53 |
| Cc1oc(-c2ccccc2)nc1C(=O)NC1=NCCS1 | -0.24 |
| O=C(Cc1ccc2c(c1)OCCO2)NCCc1nnc2n1CCC2 | 12.2 |
| O=C(c1ccco1)N1CCc2ncc(CN3CCOCC3)n2CC1 | 18.7 |
| CC(C)CCN1CCNC(=O)C1CC(=O)N1CCc2sccc2C1 (stereo not drawn) | -7.67 |
| CCc1nc(C2CCCN2CC(=O)NCCc2ccsc2)no1 (stereo not drawn) | 0.0583 |
| O=C1NCCN(Cc2cccnc2)C1CC(=O)N1CCc2n[nH]cc2C1 (stereo not drawn) | -0.172 |
| COc1ccc(-n2cc(CNC(=O)c3ccccn3)nn2)cc1 | -8.76 |
| Cc1ccc(Br)cc1NC(=O)NCC(O)CO (stereo not drawn) | 3.24 |
| O=C(c1ccccn1)N1C[C@H]2CCC[C@@]2(COCC2CCOCC2)C1 | -10.8 |
| CC1CCN(CC(=O)NC2CCN(C(C)c3ccccc3)CC2)CC1 (stereo not drawn) | -12.3 |
| Cc1nc2c(c(=O)n1C)CCN(C(=O)Cn1cccc1)CC2 | -4.24 |

| SMILES | cytotoxicity at 70.5 h [%] |
| --- | --- |
| CCN1C(=O)CCCC12CCCN(C(=O)c1ccoc1C)C2 (stereo not drawn) | -10.9 |
| CC(=O)N1CCN2C[C@H](CO)[C@@H](c3ccccc3)[C@H]2C1 | -6.55 |
| Cc1cccc2c1cnn2CCCNC(=O)c1cnn(C)c1 | -2.01 |
| Cn1c(C(N)=O)cc2c1CN(C(=O)C1CCCN(C3CCCC3)C1)CC2 (stereo not drawn) | -7.9 |
| CC(Cn1cc(Br)cn1)C(=O)Nc1ccc(Cl)cn1 (stereo not drawn) | 4.53 |
| COC1CCCN(Cc2cc(O)c3cc(C)cc(C)c3n2)C1 (stereo not drawn) | -2.68 |
| COCCOCc1cccc(NC(=O)N2CCCC2c2ccncc2)c1 (stereo not drawn) | 1.97 |
| COc1ccccc1CNc1c(O)c(=O)c1=O | -7.01 |
| CC(C)c1noc(C(C)S(=O)(=O)Cc2nc(C3CC3)no2)n1 (stereo not drawn) | -4.5 |
| NC(=O)CN(C(=O)C1Cc2cc(Cl)ccc2O1)C1CCCC1 (stereo not drawn) | 24.1 |
| Cc1ccc2c(c1)OCCCC2NCc1nnc2n1CCCCC2 (stereo not drawn) | -6.04 |
| CCCc1nnc(N2CC[C@@](O)(C3CCOCC3)[C@H](C)C2)s1 | 3.18 |
| COc1c(NC(=O)N(C)CCOc2ccc(F)cc2)c(C)nn1C | 2.48 |
| Cc1ccc(NCc2nc3n(n2)CCCCC3)c(C)c1 | 6.51 |
| CN(Cc1cnn(C)c1)C(=O)c1cc2ccccc2c(=O)[nH]1 | -9.32 |
| CC(C)NC(=O)C(NC(=O)N1CCN(c2ccc(Cl)cc2)CC1)C(C)C (stereo not drawn) | -13.3 |
| O=C1NCCN(CC2CC2)C12CCN(Cc1ccc3c(c1)OCO3)CC2 | 41.2 |
| Cn1cc(NC(=O)NCc2ccsc2)ccc1=O | -2.03 |
| O=C(NCC1CC1)c1nc2c(o1)CN(CC1CC1)C2 | -6.5 |
| CCC(CO)N(Cc1ccsc1)Cc1c(C)nn(C)c1Cl (stereo not drawn) | -5.33 |
| Cc1ccc(-n2nnc(C(=O)NS(C)(=O)=O)c2C2CC2)cc1 | -9 |
| CCC(C)N(Cc1ccncc1)Cc1ccccc1Cn1cccn1 (stereo not drawn) | -11.3 |
| Cc1cc(C)n(-c2cccc(C(=O)Nc3n[nH]c(C4CCCO4)n3)c2)n1 (stereo not drawn) | -8.19 |

| SMILES | cytotoxicity at 70.5 h [%] |
| --- | --- |
| COc1ccc(C(=O)N2CCCC(NC(=O)C(C)C)C2)c(O)c1 (stereo not drawn) | 2.73 |
| Cc1nc(C)n(CCNC(=O)C2(C)CC(c3ccccc3)=NO2)n1 (stereo not drawn) | 1.37 |
| Cc1ccc(C2CN(C(=O)NCc3nnc4ccccn34)CCO2)o1 (stereo not drawn) | -10.6 |
| CC(C)c1nc(CN(C)C(=O)CNC(N)=O)cs1 | -6.72 |
| Cc1c(Cl)cccc1S(=O)(=O)N1CCC2(CC1)OCCS2 | -1.11 |
| CC(C)CNC(=O)N1CCC2(CCCO2)C1 (stereo not drawn) | -1.61 |
| CCOC(=O)N1CCN(CC(=O)Nc2nnc(C)s2)CC1 | -6.46 |
| CSc1ccc(C(=O)N2CCOCC2c2c(C)n[nH]c2C)o1 (stereo not drawn) | 18.3 |
| CC(C)c1nc(CN(C)C2CCCN(c3cccnn3)C2)no1 (stereo not drawn) | -5.62 |
| CC(C)CNC(=O)CNc1c(NCc2ccccn2)c(=O)c1=O | 2.45 |
| COc1ccc2c(c1)CN(Cc1nc3ccsc3c(=O)[nH]1)CC2 | 5.83 |
| NC(=O)C1=NN2C(=NS(=O)(=O)c3ccccc32)N1 | -106 |
| Cc1ccccc1C1CCN(CCn2cc(-c3cccc(O)c3)nn2)C1 (stereo not drawn) | 29.4 |
| Nc1ccnc(N2C[C@H](O)[C@@H](N3CCN(c4ccccn4)CC3)C2)n1 | -17.6 |
| CC(SCCC(=O)NC(N)=O)c1ccccc1F (stereo not drawn) | -7.35 |
| NC(=O)C(CNC(=O)COCC(F)(F)F)Cc1ccc(F)cc1 (stereo not drawn) | -18.2 |
| CCOCC(O)CN1CCN(C(=O)c2ccc3c(c2)COC3)CC1 (stereo not drawn) | -8.02 |
| Cn1ccc(C(=O)N2CCc3[nH]nc(Nc4ccccc4)c3C2)n1 | 1.75 |
| CCn1nc(C)cc1C(=O)N1CCCN(CCCc2ccccc2)CC1 | 1.03 |
| CCOC(=O)c1sc2ccsc2c1CNC(=O)COC | 3.32 |
| CC(C)NC(=O)C1CN(Cc2cccs2)Cc2ccnn2C1 (stereo not drawn) | 3.45 |
| COc1cccc2c1OCC(CNC(=O)Cc1cnccn1)C2 (stereo not drawn) | -3.59 |
| C[S+]([O-])CCNC(=O)N1CCN(c2cc(F)ccc2F)CC1 (stereo not drawn) | 13 |

| SMILES | cytotoxicity at 70.5 h [%] |
| --- | --- |
| Cn1cc([C@@H]2CN(S(=O)(=O)c3ccccc3F)C[C@H]2N)c2ccncc21 | 19 |
| Cn1ccnc1CN1CCCN(C(=O)c2ccc3c(c2)OCO3)CC1 | -6.18 |
| COc1ccc(C2CC(=O)Oc3cc(C)[nH]c(=O)c32)c(OC)c1 (stereo not drawn) | -19.2 |
| COc1ccc(CN2CCCN(c3cc(C(N)=O)ccn3)CC2)cc1 | 9.62 |
| COCCN1CCCC2(CCN(c3ccsc3)C2=O)C1 (stereo not drawn) | -7.27 |
| CC(C)(C)n1ncc2c1NC(=O)CSC2c1ccc2c(c1)OCO2 (stereo not drawn) | 2.42 |
| CN(C)C(=O)[C@@H]1C[C@@H]2CCN(Cc3ccc4c(c3)OCO4)C[C@@H]2O1 | 1.53 |
| FC(F)(F)c1ccc(-c2noc3c2CN(CC2CCCO2)CC3)cc1 (stereo not drawn) | -10.2 |
| CN(c1cccnn1)C1CCN(C(=O)Cc2c[nH]c3ccccc23)CC1 | -4.23 |
| CN1C(=O)CN(C(=O)c2ccc(=O)n(C)c2)c2ccccc21 | 1.56 |
| CC(NC(=O)CCc1cccs1)c1nnc2n1CCCCC2 (stereo not drawn) | 8.51 |
| CN(C(=O)CCNC(=O)NC1CCCCC1)c1ccccc1 | 38.6 |
| COC(=O)c1ccc(CN[C@@H]2COC[C@H]2Cc2cc(C)no2)cc1 | -4.83 |
| O=C(c1cocn1)N1CCC2(CC1)CC(Oc1ccccn1)CO2 (stereo not drawn) | -8.48 |
| CN(C)C(=O)c1nc2c(s1)CCCN2Cc1ccccc1 | -7.89 |
| N#Cc1ccc(NCc2cc3n(n2)CCCN(C(=O)C2CCC2)C3)nc1 | -8.13 |
| CC(C)=CCN1CCN(CCCOc2ccccc2)[C@H]2CS(=O)(=O)C[C@H]21 | -4.88 |
| O=C1C[C@H]2[C@@H](CCN2C(=O)Cc2ccsc2)N1Cc1cccnc1 | -3.76 |
| CN(CC(C)(C)O)C1CCCN(Cc2noc(C3CC3)n2)C1 (stereo not drawn) | 41.7 |
| Cc1ccc2oc(C(=O)N3CCC(C(=O)N4CCCC4)CC3)cc2n1 | -14.6 |
| NS(=O)(=O)NCc1cc(-c2ccc(C(F)(F)F)cc2)n[nH]1 | -5.31 |
| COc1c(C(=O)NCc2cccnc2)nnn1Cc1ccc(C)cc1 | -15.1 |
| Cc1cnn(CC2CCCN2C(=O)CCCc2nc(C)no2)c1 (stereo not drawn) | 32.9 |

| SMILES | cytotoxicity at 70.5 h [%] |
| --- | --- |
| CNc1cc(C)nc(-c2cc(NCCO)nc3[nH]ccc23)n1 | 11.9 |
| CSc1ccc2cc(CN(C)CCO)c(=O)[nH]c2c1 | -16.3 |
| Cc1ccc(-c2noc(C(O)CC(C)C)n2)nn1 (stereo not drawn) | -3.31 |
| O=C(Cc1cc2c(cc1Br)OCCO2)NC1CCS(=O)(=O)C1 (stereo not drawn) | 7.44 |
| OCCCN(CCc1cccc(F)c1)C1CC1 | -4.09 |
| CC(C)NC(=O)[C@@H]1CCO[C@@H]2CCN(c3ncccn3)C[C@H]21 | 0.612 |
| CC(Cn1ccnc1)NC(=O)Nc1ccccn1 (stereo not drawn) | 10.5 |
| CCC(C)(C)NC(=O)c1ncn2c1CN(C)S(=O)(=O)c1ccccc1-2 | 20.8 |
| NC(=O)C1CCN(C(=O)c2cccn2Cc2cccs2)CC1 | -4.99 |
| Cc1nn(CCC(=O)N2CCCC(OCc3cccnc3)C2)c(C)c1C (stereo not drawn) | -6.47 |
| O=C(NCC(F)(F)F)C1CSCN1S(=O)(=O)c1ccc(F)cc1 (stereo not drawn) | -4.65 |
| CCc1nnc2n1CCN(C(=O)c1ccc(C)c(S(N)(=O)=O)c1)C2 | -1.49 |
| CC(C)c1n[nH]c(C2CN(C(=O)c3cc4c(s3)CCC4)CCO2)n1 (stereo not drawn) | -8.59 |
| CCOc1cccc(COC(=O)c2ccc(Cl)cn2)n1 | -8.76 |
| CCOC(=O)N1CCN(c2nc(CCN)nc3sc(C)c(C)c23)CC1 | 1.12 |
| O=C(CN1CCc2cncnc2C1)NCCOc1cccc(Cl)c1 | -4.17 |
| Cc1cc(S(=O)(=O)Nc2onc(C)c2C)sc1C | -5.02 |
| Cc1oc(CNC(=O)Cc2cccc(OC(F)F)c2)cc1C(=O)O | -7.31 |
| COc1cccc(C2SCC(=O)Nc3n[nH]cc32)c1OC(C)C (stereo not drawn) | -20.4 |
| Cc1cnc(CN2C[C@H]3C[C@H](Oc4ccccc4)C[C@H]3C2)cn1 | 34.2 |
| Cc1ccc(C)c2c(O)cc(CN3CCC(=O)NCC3C)nc12 (stereo not drawn) | -8.42 |
